{"source": "ChEMBL document CHEMBL1136148", "about": "“Tetrabiphenylporphyrin-based receptors for protein surfaces show sub-nanomolar affinity and enhance unfolding” (Bioorg Med Chem Lett, 2003)"}
{"experiment": "Binding ability of the receptor to the surface of Cytochrome c and activity expressed as Dissociation constant(Kd)", "set-up": "species or system Equus caballus", "units": {"Kd": "nM"}}
{"smiles": "O=C(O)c1cc(C(=O)O)cc(-c2ccc(-c3c4nc(c(-c5ccc(-c6cc(C(=O)O)cc(C(=O)O)c6)cc5)c5ccc([nH]5)c(-c5ccc(-c6cc(C(=O)O)cc(C(=O)O)c6)cc5)c5ccc([nH]5)c(-c5ccc(-c6cc(C(=O)O)cc(C(=O)O)c6)cc5)c5nc3C=C5)C=C4)cc2)c1", "Kd": 1500}
{"smiles": "O=C(O)C[C@H](NC(=O)c1cc(C(=O)N[C@@H](CC(=O)O)C(=O)O)cc(-c2ccc(-c3c4nc(c(-c5ccc(-c6cc(C(=O)N[C@@H](CC(=O)O)C(=O)O)cc(C(=O)N[C@@H](CC(=O)O)C(=O)O)c6)cc5)c5ccc([nH]5)c(-c5ccc(-c6cc(C(=O)N[C@@H](CC(=O)O)C(=O)O)cc(C(=O)N[C@H](CC(=O)O)C(=O)O)c6)cc5)c5nc(c(-c6ccc(-c7cc(C(=O)N[C@@H](CC(=O)O)C(=O)O)cc(C(=O)N[C@@H](CC(=O)O)C(=O)O)c7)cc6)c6ccc3[nH]6)C=C5)C=C4)cc2)c1)C(=O)O", "Kd": 0.67}
{"smiles": "COC(=O)[C@H](CC(=O)O)NC(=O)c1cc(C(=O)N[C@@H](CC(=O)O)C(=O)OC)cc(-c2ccc(-c3c4nc(c(-c5ccc(-c6cc(C(=O)N[C@@H](CC(=O)O)C(=O)OC)cc(C(=O)N[C@@H](CC(=O)O)C(=O)OC)c6)cc5)c5ccc([nH]5)c(-c5ccc(-c6cc(C(=O)N[C@@H](CC(=O)O)C(=O)OC)cc(C(=O)N[C@H](CC(=O)O)C(=O)OC)c6)cc5)c5nc(c(-c6ccc(-c7cc(C(=O)N[C@@H](CC(=O)O)C(=O)OC)cc(C(=O)N[C@@H](CC(=O)O)C(=O)OC)c7)cc6)c6ccc3[nH]6)C=C5)C=C4)cc2)c1", "Kd": 1700}
{"smiles": "O=C(O)c1ccc(-c2ccc(-c3c4nc(c(-c5ccc(-c6ccc(C(=O)O)cc6)cc5)c5ccc([nH]5)c(-c5ccc(-c6ccc(C(=O)O)cc6)cc5)c5ccc([nH]5)c(-c5ccc(-c6ccc(C(=O)O)cc6)cc5)c5nc3C=C5)C=C4)cc2)cc1", "Kd": 17000}
